Literature values, collected in patent US20070207193A1, “Novel application of topical anesthetics for modulation of neurogenic tremor” (priority 2006, published 2007).

Key:
subthalamic nucleus = conditions: applied centrally in the subcortical areas of the brain
Parkinsonian tremor = conditions: ten patients undergoing stereotactic thalamotomy

CCN(CC)CC(=O)Nc1c(C)cccc1C [lidocaine]
effect on tremor (subthalamic nucleus): ameliorated tremor
cases in which microinjection replicated the effects of microstimulation (Parkinsonian tremor): ⅔
